Assay [1] relates to LIS1 heterozygous mice (Lis1+/−) embryos. The assay can be described thus: Apoptosis in mouse embryo brains (TUNEL staining). As to conditions: 100 μg/g IP to pregnant mice on alternate days from E9.5, read at E15.5, FIG. 9. The format is in vivo. How it is done:
A neo(−)129S-Pafah1b1^tm2Awb/J homozygous male mouse lacking neo gene was mated with five homozygous EII-Cre transgenic female mice (FVB/N-Tg (EIIa-cre) C5379Lmgd/J, The Jackson Laboratory) by raising them in the same mouse cage. In total, six sets of mouse cages were prepared for the mating experiment. Plug check (confirmation of mating) was carried out every morning between 7 and 10 am, thereby determining the gestation cycle. SNJ-1945 was dissolved in dimethyl sulfoxide (DMSO) at a concentration of 100 mg/ml, and intraperitoneally injected to the pregnant mice carrying LIS1 heterozygous mice (Lis1^+/−) and the pregnant mice carrying control mice (normal mouse embryos), so that the administration amount became 100 μg per gram of body weight on alternate days from Day 9.5 of the embryonic period (E9.5). On Day 15.5 of the embryonic period (E15.5), the pregnant mice were killed by cervical fracture, and the mouse embryos were removed and immobilized for 24 hours by 4% paraformaldehyde (Wako: 162-16065). After substitution with PBS, paraffin embedding was performed by a standard method. The tissue block was cut into 5 μm pieces. Each piece was adhered to an APS-coated slide glass. After deparaffinization, 20 μg/ml proteinase K/PBS treatment was conducted for 15 minutes at room temperature, and 3% H2O2/PBS treatment was performed for ten minutes at room temperature. […]

The subject of assay [2] is Lis1+/− mouse embryonic fibroblasts (MEF). The assay can be described thus: Change in LIS1 protein amount in cells by SNJ-1945 (western blotting). The assay is classed as cell-based. The settings on record: Lis1+/− MEF treated with SNJ-1945, western blotting, FIG. 1. As to the method: Fibroblasts (MEF; mouse embryonic fibroblasts) were established from five each of LIS1 gene hetero-deficient and wild-type mice (12.5- to 14.5-day-old embryos). The fibroblasts were established as follows. Pregnant mice were killed by cervical fracture, and the mouse embryos were immediately isolated under a germ-free condition. After the heads and visceral tissues were removed with tweezers, the mouse embryos were dissected with scissors. 10 ml of Trypsin-EDTA (Gibco, 25200) was added to each dissected tissue fraction, and the resulting liquid was placed in a 50 ml plastic tube (Nunc, 373687) to be subjected to 30-minute incubation at 37° C. After incubation, 10 ml of fetal bovine serum (Equitech-Bio, Inc., SFBM30-1798) was added, followed by pipetting with a 10 ml pipette (Nunc, 159633), thereby isolating the cells. After the cells were allowed to stand at room temperature for 5 minutes, the supernatant was collected. […]
Using the cells, the influence of SNJ-1945 on the LIS protein amount in each cell was analyzed as follows. […] After determination of protein quantity, 10 μg of protein was placed on each lane. After isolation using a 10% acrylic gel (SDS-PAGE), the protein was transferred to an Immobilon membrane (Millipore, IPVH00010), and LIS and DIC (dynein intermediate chain: reflecting the dynein amount) were detected. […] was detected to be used as a protein amount reference. […]
(Immunoblotting shows a protein as a band on a membrane.)

SMILES strings stand for the structures.

In the case of `COCCOCCOC(=O)N[C@@H](CC(C)C)C(=O)N[C@@H](Cc1ccccc1)C(=O)C(=O)NC1CC1` [compound 17, ((1S)-1-((((1S)-1-Benzyl-2,3-dioxo-3-(cyclopropylamino)propyl)amino)carbonyl)-3-methylbutyl)carbamic acid 5-methoxy-3-oxapentyl ester], the “apoptosis in embryo brain (TUNEL)” value in assay [1] is “significantly reduced”. The “LIS protein amount in cells” value in assay [2] was “the decrease in the LIS protein amount was recovered”.
